We go through two molecules from patent US20220241314A1, “COMPOSITIONS AND METHODS FOR TREATMENT OF HEPATITIS B VIRUS INFECTION” (priority 2019, published 2022).

Where two headings read alike, the source gives them in different places. {ppp} = triphosphate

The subject of data set [1] is HBV cccDNA. Briefly: HBV cccDNA formation in infected HepG2-hNTCP cells (Hirt extraction, Southern blot, RT-qPCR). The format is cell-based, HBV (Genotype D). To be noted: harvested 3 dpi; for level of protein free-relaxed circular (PF-RC) DNA, Southern blot / HBV cccDNA formation, Southern blot: HepG2-hNTCP, treated following HBV infection; for HBV cccDNA formation, Southern blot: versus DMSO or X-RNA controls; for IC50 / IC90: HBV 1000 Geq/cell; for IC50: read-out: IC50, decline of cccDNA relative to DMSO treated controls; for IC90: read-out: IC90, decline of cccDNA relative to DMSO treated controls. As to the method:
The scheme illustrates the schedule with HBV inoculum (1000 Geq/cell) and administration of Cyclosporin A (CsA), F7, X-RNA and poly-U/UC PAMP. 2.5% DMSO was added to the medium at 1 day post infection (Dpi). cccDNA and PF RC DNA were harvested from HepG2-hNTCP cells using Hirt extraction method and analyzed by Southern blot analysis using an HBV-specific DNA probe. Viral protein-free DNAs (protein-free Relaxed Circular DNA [PF-RC DNA] and cccDNA) are noted. (2B and 2C) HepG2-hNTCP 2(B) or differentiated HepaRG cells (2C) were infected with HBV at moi of 1000 Geq/cell, and administered CsA (10 μM) or F7, in the indicated concentrations. For upper panels of (2B) and (2C), DNAs were isolated after Hirt extraction at 3 dpi and subjected to Southern blot analysis using as HBV-DNA probe. […] (2D and 2E) HepG2-hNTCP (2D) or dHepaRG cells (2E) were infected with HBV at an moi of 1000 Geq/cell, and administered CsA (10 μM), X-RNA (100 ng/ml), or poly-U/UC PAMP in the indicated concentrations. For upper panels of (2D) and (2E), DNAs were analyzed using Southern blot analysis. For lower panels of (2D) and (2E), DNAs were analyzed by RT-qPCR. IC90, and IC50 values were calculated based on the decline of the cccDNA relative to DMSO treated controls. IC90, and IC50 values are the average of three experiments±one standard deviation. […] Positions of mass markers are indicated on each Southern blot.
To determine how IRF3 activation impacts HBV infection and production of cccDNA in infected cells, HepG2-hNTCP cells were treated with F7 or poly-U/UC PAMP (100 ng/ml [=2.94 nM] or 200 ng/ml [=5.87 nM]) following HBV infection. Cyclosporin A (CsA) treatment was employed as an HBV entry inhibitor antiviral control (Watashi, K., et al. (2014). Cyclosporin A and its analogs inhibit hepatitis B virus entry into cultured hepatocytes through targeting a membrane transporter, sodium taurocholate cotransporting polypeptide (NTCP). Hepatology (Baltimore, Md.) 59, 1726-1737). Cells were harvested 3 days post-infection (dpi) and extracts were prepared using Hirt extraction methods for isolating protein-free DNA, as shown in FIG. 2A (Guo, H., et al. (2007). Characterization of the Intracellular Deproteinized Relaxed Circular DNA of Hepatitis B Virus: an Intermediate of Covalendy Closed Circular DNA Formation. Journal of Virology 81, 12472-12484 Hirt, B. (1967). Selective extraction of polyoma DNA from infected mouse cell cultures. Journal of molecular biology 26, 365-369).
HBV infection HBV (Genotype D) was purified from the supernatant of HepAD38 cells by PEG concentration and subsequent sucrose gradient, as described previously (Ko, C., et al. (2014). DDX3 DEAD-Box RNA Helicase Is a Host Factor That Restricts Hepatitis B Virus Replication at the Transcriptional Level. Journal of Virology 88, 13689-13698; Watashi, K., et al. (2013), supra). For HBV infection cells were seeded into collagen-coated plates. One day later, the cells were infected with HBV in DMEM containing 4% polyethylene glycol 8000 (PEG-8000). The multiplicities of infection (expressed as virus genome equivalent/cell) are indicated in each Figure Legend. The inocula were removed 24 hours later, and the infected cultures were maintained in complete DMEM containing 2.5% DMSO until harvesting, as described previously (Ni, Y., et al. (2014). Hepatitis B and D viruses exploit sodium taurocholate co-transporting polypeptide for species-specific entry into hepatocytes. Gastroenterology 146, 1070-1083).
Reverse transcription quantitative real time qPCR (RT-qPCR) analysis: Total cellular RNAs were extracted from cells using TRIZOL reagent and the manufacturers protocol (Invitrogen). cDNA was synthesized from the purified RNA by both random and oligo (dT) priming using iScript select cDNA synthesis kit (Biorad, Inc.). For HBV cccDNA expression analysis, total DNA was extracted using the DNeasy kit (QIAGEN).

Data set [2] has as its system HBV cccDNA. Briefly: Time-of-addition experiments on cccDNA synthesis. The format is cell-based, HBV (Genotype D). The following applies: for HBV cccDNA level: HepG2-hNTCP and dHepaRG. The method, then: FIGS. 3A-3F illustrate that F7 and poly-U/UC PAMP suppress de novo HBV cccDNA synthesis. (3A) Upper: Infection and poly-U/UC PAMP treatment schedule. Cells were treated with 100 ng/ml of poly-U/UC PAMP either for 24 hours before (Pre), for 48 hours after HBV infection (Post), or for 72 hours (pre/post). At 3 dpi cells were harvested and Hirt extracts were prepared (3B) HepG2-hNTCP cells and (3C) dHepaRG cells were analyzed by Southern blot (upper) and RT-qPCR (lower). For RT-qPCR. anal sis, values from DMSO treated control were set to 100% respectively, and data are shown as mean±standard deviations (SD) percentage of cccDNA in control samples. ***P<0.005, and ns=non-significant. (3D) HBV infection and F7 treatment schedule. Cells were treated with F7 (10 μM) either for 24 hours before (Pre), 24 hours during the time of infection (Co), d8 hours after infection (Post), or 96 hours pre/co/post). At 3 Dpi, the cells were harvested and. Hirt extracts prepared HepG2-hNTCP (3E) and dHepaRG cells (3F). Upper panels show Southern blot analysis. Lower panels show or RT-qPCR analysis and percent of cccDNA remaining in treated cells compared to control DMS)-treated cells. Values from DMSO-treated control cultures were set to 100%. Data was presented as mean±standard deviations (SD), *P<0.01, **P<0.005, ***P<0.001, ****P<0.0001 and ns=non-significant. CsA served as a treatment control. For Southern blots the position of mass markers are indicated.
To further define inhibitory effect of F7 and poly-U/UC on cccDNA biosynthesis, time-of-addition experiments were conducted in HepG2-hNTCP and dHepaRG cells. For poly-U/UC PAMP, treatment for 24 hours pre-infection (pre-treatment), from 1 to 3 dpi (post-treatment), and from 24 hours pre-infection onward through 3 dpi (pre/post-treatment) were conducted (FIG. 3A). […]

The mark [3] stands for this setting: Hepatitis B virus, HepG2-hNTCP cells.

The term IC50 denotes the concentration that gives 50% inhibition. What is called IC90 is the point of the concentration-response curve where the effect stands at 90%. `O=C(Nc1ccc2nc(NC(=O)c3ccc4ccccc4c3)sc2c1)c1ccccc1` [F7, N-(6-benzamido-1,3-benzothiazol-2-yl)naphthalene-2-carboxamide]: in data set [1], the “level of protein free-relaxed circular (PF-RC) DNA, Southern blot” value was “markedly decreased” and the “HBV cccDNA formation, Southern blot” value is listed as “suppressed HBV cccDNA formation”. Moreover, in data set [1] (setting [3]), the IC50 was approximately 8.48 µM and the IC90 is approximately 17.4 µM. In addition, the “HBV cccDNA level” value in data set [2] (F7 10 μM administered once pre or co-treatment, 3 dpi) is “little effect on HBV cccDNA level”. Besides, in data set [2] (F7 10 μM administered post-infection or pre/co/post through 3 dpi), the “HBV cccDNA level” value was “significant suppression of cccDNA levels”.

B1: poly-U/UC PAMP: ~100 nt PAMP motif from the HCV genome comprising 5′ppp and the poly U/UC region, recognized by RIG-I; formulated in liposome (nucleic acid)
chain: GGCCAUCCUGUUUUUUUCCCUUUUUUUUUUUCUUUUUUUUUUUUUUUUUUUUUUUUUUUUUUUUUUCUCCUUUUUUUUUCCUCUUUUUUUCCUUUUCUUUCCUUU
modifications: RNA, 5' {ppp}, backbone and methylation of C not given here; formulated in liposome
notes: ~100 nt PAMP motif from the HCV genome comprising 5′ppp and the poly U/UC region, recognized by RIG-I; formulated in liposome
As for B1, in data set [1] (HepG2-NTCP cells), the IC50 is approximately 0.00194 µM and the IC90 is approximately 0.012 µM. Also, in data set [1], the “level of protein free-relaxed circular (PF-RC) DNA, Southern blot” value is “markedly decreased” and the “HBV cccDNA formation, Southern blot” value is recorded as “suppressed HBV cccDNA formation”. Moreover, the “synthesis of cccDNA” value in data set [2] (poly-U/UC PAMP 100 ng/ml pre-, post- and pre/post-treatment, HepG2-hNTCP and HepaRG cells, 3 dpi) is reported as “uniformly significantly suppressed”.
